Experiments:
Format in all cases: in vivo
[1] = tested on: ducksalad (Heteranthera limosa); experiment: Test B flooded paddy test; conditions: 250 g ai/ha, Flood; visual rating on scale of 0 to 100 where 0 is no effect and 100 is complete control; 13 to 15 d after treatment
How it was run: (§1)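 Plants at the 2-leaf stage were flooded to 3 cm above soil, and test compounds were applied directly into the paddy water, which was held at that depth throughout. After 13 to 15 d in a greenhouse, injury was rated visually against untreated controls on a 0–100 scale (0 no effect, 100 complete control).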

[2] = tested on: barnyardgrass (Echinochloa crus-galli); experiment: Test B flooded paddy test; conditions: 250 g ai/ha, Flood; visual rating on scale of 0 to 100 where 0 is no effect and 100 is complete control; 13 to 15 d after treatment
How it was run: as §1

[3] = tested on: sedge, umbrella (small-flower umbrella sedge, Cyperus difformis); experiment: Test B flooded paddy test; conditions: 250 g ai/ha, Flood; visual rating on scale of 0 to 100 where 0 is no effect and 100 is complete control; 13 to 15 d after treatment
How it was run: as §1

rice (Oryza sativa) = experiment: Test B flooded paddy test; conditions: 250 g ai/ha, Flood; visual rating on scale of 0 to 100 where 0 is no effect and 100 is complete control; 13 to 15 d after treatment
How it was run: as §1

[4] = tested on: chickweed (common chickweed, Stellaria media); experiment: Test C greenhouse herbicide test, postemergence
How it was run: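 Ratings are visual scores from 0 (no effect) to 100 (complete control), made against controls 13–15 d after treatment. Postemergence sprays were applied in the greenhouse to plants 2–18 cm tall (1- to 4-leaf stage) in peat-moss/vermiculite potting medium.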

[5] = tested on: barnyardgrass (Echinochloa crus-galli); experiment: Test A greenhouse herbicide test, pre- and postemergence
How it was run: (§2)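 Seeds sown in loam–sand blend got a preemergence directed soil spray of compound in non-phytotoxic solvent with surfactant. Postemergence treatment was given at 2–10 cm, one- to two-leaf stage. After ~10 d in greenhouse, injury was rated visually vs untreated controls, 0 (no effect) to 100 (complete control).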

[6] = tested on: pigweed (Amaranthus retroflexus); experiment: as above
How it was run: as §2

[7] = Postemergence, 31 g ai/ha, 0 to 100 scale (0 no effect, 100 complete control)
[8] = Postemergence, 125 g ai/ha, scale 0 to 100, 0 is no effect, 100 is complete control
[9] = Postemergence, 250 g ai/ha, scale 0 to 100, 0 no effect, 100 complete control, 13 to 15 d
[10] = postemergence, 62 g ai/ha, scale 0 to 100, 0 no effect, 100 complete control
[11] = Postemergence, 125 g ai/ha, visual rating after approx. 10 d, 0 to 100 scale (0 no effect, 100 complete control)
[12] = Postemergence, 500 g ai/ha, 0 to 100 scale, 0 is no effect, 100 is complete control
[13] = Preemergence, 125 g ai/ha, 0 to 100 scale where 0 is no effect and 100 is complete control
[14] = Preemergence, 500 g ai/ha, 0 to 100 scale, 0 no effect, 100 complete control
[15] = Postemergence, 125 g ai/ha, 0 to 100 scale where 0 is no effect and 100 is complete control
[16] = Postemergence, 1000 g ai/ha, 0 to 100 scale, 0 is no effect, 100 is complete control
[17] = Preemergence, 1000 g ai/ha, 0 to 100 scale, 0 no effect, 100 complete control

Compound | Plant response rating, Ducksalad [1] | Plant response rating, Barnyardgrass [2] | Plant response rating, Sedge, Umbrella [3] | Plant response rating, Rice (rice (Oryza sativa)) | Chickweed plant response rating [4, 7] | Plant response rating, Chickweed [4, 8] | Plant response rating, Chickweed [4, 9] | Chickweed plant response rating [4, 10] | Plant response rating, Barnyardgrass [5, 11] | Barnyardgrass plant response rating [5, 12] | Barnyardgrass plant response rating [5, 13] | Plant response rating, Barnyardgrass [5, 14] | Plant response rating, Pigweed [6, 11] | Pigweed plant response rating [6, 12] | Pigweed plant response rating [6, 13] | Plant response rating, Pigweed [6, 14] | Plant response rating, Barnyardgrass [5, 15] | Plant response rating, Pigweed [6, 15] | further results
CC(=O)Oc1c(C)nn(C)c(=O)c1-c1c(C)sc2ccc(C)cc12 [Compound 25] | 20 | 30 | 60 | 0 | 90 | 100 | 100 | 98 | 20 | 90 | 30 | 90 | 90 | 100 | 100 | 100 | – | – | –
CC(=O)Oc1c(C)nn(C)c(=O)c1-c1c(C)sc2c(C)cc(C)cc12 [Compound 27] | 30 | 30 | 80 | 40 | 95 | 100 | 100 | 100 | 90 | 90 | 90 | 100 | 90 | 100 | 100 | 100 | – | – | –
CCC(=O)Oc1c(C)nn(C)c(=O)c1-c1c(C)sc2c(C)cc(C)cc12 [Compound 28] | 80 | 60 | 95 | 40 | 95 | 98 | 95 | 95 | 80 | 90 | 90 | 90 | 90 | 90 | 100 | 100 | – | – | –
COc1nn(C)c(=O)c(-c2c(C)sc3ccccc23)c1O [Compound 33] | 0 | 0 | 0 | 0 | 85 | 90 | 95 | 90 | 40 | 90 | 20 | 90 | 40 | 70 | 20 | 20 | – | – | –
COc1nn(C)c(=O)c(-c2c(C)ccc3ccccc23)c1OC(=O)OC(C)C [Compound 36] | 30 | 0 | 70 | 20 | 80 | 95 | 95 | 95 | 50 | 80 | 0 | 30 | 90 | 90 | 100 | 100 | – | – | –
CCC(=O)Oc1c(C)nn(C)c(=O)c1-c1c(C)sc2ccc(C)cc12 [Compound 42] | 0 | 0 | 0 | 0 | 90 | 100 | 100 | 100 | – | 90 | 80 | 100 | – | 100 | 100 | 100 | 30 | 90 | –
Cc1cc(C)c2ccccc2c1-c1c(O)cnn(C)c1=O [Compound 51] | 0 | 0 | 0 | 0 | 50 | 70 | 90 | 55 | – | 80 | 30 | 90 | – | 90 | 70 | 100 | 20 | 70 | –
COc1nn(C)c(=O)c(-c2c(C)ccc3ccccc23)c1O [Compound 54] | 0 | 0 | 0 | 0 | 95 | 95 | 100 | 95 | – | 90 | 40 | 90 | – | 100 | 100 | 100 | 30 | 90 | –
Cc1ccc2ccccc2c1-c1c(O)cnn(C)c1=O [Compound 56] | 0 | 0 | 0 | 0 | 5 | 55 | 70 | 10 | – | 60 | 10 | 50 | – | 90 | 60 | 100 | 10 | 80 | –
Cc1ccc2ccccc2c1-c1c(O)c(C)nn(C)c1=O [Compound 59] | 0 | 0 | 0 | 0 | 90 | 98 | 98 | 98 | – | 90 | 80 | 100 | – | 100 | 100 | 100 | 80 | 100 | –
Cc1ccc2ccc(C)c(-c3c(O)c(C)nn(C)c3=O)c2c1 [Compound 60] | 20 | 35 | 30 | 35 | 90 | 95 | 98 | 95 | – | – | – | – | – | – | – | – | – | – | Barnyardgrass plant response rating [5, 16]: 90; Plant response rating, Barnyardgrass [5, 17]: 80; Pigweed plant response rating [6, 16]: 100; Plant response rating, Pigweed [6, 17]: 100
Cc1nn(C)c(=O)c(-c2c(C)sc3ccccc23)c1O [Compound 65] | 0 | 0 | 0 | 0 | 55 | 90 | 90 | 90 | – | 90 | 60 | 90 | – | 90 | 100 | 100 | 20 | 80 | –
